Results: patent US8410112B2, “Compounds useful as inhibitors of ATR kinase” (Vertex Pharmaceuticals Incorporated, priority 2008, dated 2013)

molecular target: T1, full-length ATR (Homo sapiens, UniProt Q13535); experiment: ATR Inhibition Assay (radioactive-phosphate incorporation); type: biochemical; conditions: Ki(app); 5 nM full-length ATR, 10 μM ATP, 800 μM target peptide, 25° C.
T1 construct: in the presence of 5 nM full-length ATR
Procedure, shortened: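 Buffer was 50 mM Tris/HCl pH 7.5, 10 mM MgCl2, 1 mM DTT, with 5 nM enzyme, 10 μM [γ-33P]ATP and 800 μM target peptide at 25 °C. Compound was pre-incubated 10 min before ATP start, and the reaction was stopped after 24 h. Phosphocellulose filter capture; Ki(app) came from non-linear regression of background-corrected initial rates.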

T1 sequence (Q13535 whole entry): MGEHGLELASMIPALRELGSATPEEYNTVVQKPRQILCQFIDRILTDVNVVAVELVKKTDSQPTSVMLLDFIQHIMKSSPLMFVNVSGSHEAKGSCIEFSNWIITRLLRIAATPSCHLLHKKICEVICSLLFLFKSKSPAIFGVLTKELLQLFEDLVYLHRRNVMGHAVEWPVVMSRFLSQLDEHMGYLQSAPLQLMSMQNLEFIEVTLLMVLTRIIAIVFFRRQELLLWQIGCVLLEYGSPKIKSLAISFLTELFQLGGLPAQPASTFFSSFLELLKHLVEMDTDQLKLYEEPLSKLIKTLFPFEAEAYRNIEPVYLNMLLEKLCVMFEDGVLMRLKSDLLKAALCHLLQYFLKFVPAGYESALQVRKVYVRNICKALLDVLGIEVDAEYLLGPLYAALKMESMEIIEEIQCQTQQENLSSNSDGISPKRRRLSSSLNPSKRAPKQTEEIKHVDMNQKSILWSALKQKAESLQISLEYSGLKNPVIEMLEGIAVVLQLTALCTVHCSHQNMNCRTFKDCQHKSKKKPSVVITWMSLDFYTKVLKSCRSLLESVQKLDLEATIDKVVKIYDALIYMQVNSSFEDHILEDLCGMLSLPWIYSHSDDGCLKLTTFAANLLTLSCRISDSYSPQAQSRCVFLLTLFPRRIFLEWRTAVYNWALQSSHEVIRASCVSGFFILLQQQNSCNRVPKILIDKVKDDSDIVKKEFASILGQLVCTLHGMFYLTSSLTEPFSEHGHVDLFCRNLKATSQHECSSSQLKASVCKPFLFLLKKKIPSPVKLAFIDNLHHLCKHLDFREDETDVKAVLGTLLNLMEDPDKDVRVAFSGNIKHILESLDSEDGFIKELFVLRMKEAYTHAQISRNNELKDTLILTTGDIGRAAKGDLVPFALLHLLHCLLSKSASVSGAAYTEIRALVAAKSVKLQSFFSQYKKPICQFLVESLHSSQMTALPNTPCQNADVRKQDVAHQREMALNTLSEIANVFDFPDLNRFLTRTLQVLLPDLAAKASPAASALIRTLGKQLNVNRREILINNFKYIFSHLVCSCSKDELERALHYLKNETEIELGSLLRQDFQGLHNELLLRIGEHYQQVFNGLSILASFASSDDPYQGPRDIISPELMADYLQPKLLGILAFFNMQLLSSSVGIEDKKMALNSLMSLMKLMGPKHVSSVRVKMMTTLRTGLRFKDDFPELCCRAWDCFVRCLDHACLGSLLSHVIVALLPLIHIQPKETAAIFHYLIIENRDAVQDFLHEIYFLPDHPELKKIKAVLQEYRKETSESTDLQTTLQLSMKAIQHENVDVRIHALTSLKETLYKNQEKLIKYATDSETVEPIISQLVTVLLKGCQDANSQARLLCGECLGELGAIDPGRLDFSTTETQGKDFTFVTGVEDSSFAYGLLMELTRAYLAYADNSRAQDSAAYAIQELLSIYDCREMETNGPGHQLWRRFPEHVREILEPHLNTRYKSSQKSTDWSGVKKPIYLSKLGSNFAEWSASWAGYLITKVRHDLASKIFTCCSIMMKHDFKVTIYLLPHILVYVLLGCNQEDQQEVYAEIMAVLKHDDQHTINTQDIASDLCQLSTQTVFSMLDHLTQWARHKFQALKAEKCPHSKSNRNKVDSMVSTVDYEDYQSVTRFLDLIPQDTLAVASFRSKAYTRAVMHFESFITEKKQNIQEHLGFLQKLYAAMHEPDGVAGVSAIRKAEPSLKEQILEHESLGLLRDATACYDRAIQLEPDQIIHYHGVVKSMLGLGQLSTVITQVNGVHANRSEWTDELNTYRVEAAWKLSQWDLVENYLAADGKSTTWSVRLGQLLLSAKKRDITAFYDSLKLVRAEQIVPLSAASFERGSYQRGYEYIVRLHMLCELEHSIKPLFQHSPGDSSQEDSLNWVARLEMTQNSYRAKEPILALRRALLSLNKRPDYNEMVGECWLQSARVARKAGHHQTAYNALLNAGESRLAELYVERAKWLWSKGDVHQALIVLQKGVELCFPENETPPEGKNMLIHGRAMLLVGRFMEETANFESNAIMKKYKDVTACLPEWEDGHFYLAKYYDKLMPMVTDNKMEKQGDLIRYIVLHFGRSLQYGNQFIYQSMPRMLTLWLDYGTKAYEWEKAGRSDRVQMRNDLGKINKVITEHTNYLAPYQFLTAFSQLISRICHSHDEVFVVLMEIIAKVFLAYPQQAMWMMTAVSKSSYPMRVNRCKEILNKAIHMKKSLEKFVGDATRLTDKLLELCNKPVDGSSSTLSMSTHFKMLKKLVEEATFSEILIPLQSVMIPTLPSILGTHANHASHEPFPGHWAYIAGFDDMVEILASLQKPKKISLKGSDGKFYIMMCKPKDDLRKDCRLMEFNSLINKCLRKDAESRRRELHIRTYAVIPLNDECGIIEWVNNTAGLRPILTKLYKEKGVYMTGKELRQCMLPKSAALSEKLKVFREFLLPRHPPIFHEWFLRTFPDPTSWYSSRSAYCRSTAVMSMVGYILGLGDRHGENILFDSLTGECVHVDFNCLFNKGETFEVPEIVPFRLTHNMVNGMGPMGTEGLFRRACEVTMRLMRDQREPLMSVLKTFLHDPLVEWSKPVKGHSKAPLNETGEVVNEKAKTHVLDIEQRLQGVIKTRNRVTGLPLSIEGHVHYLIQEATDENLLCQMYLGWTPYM

Q: With `Nc1ncc(N2CCNCC2)nc1-c1nc2ccccc2[nH]1` [Compound I-40, 3-(1H-benzo[d]imidazol-2-yl)-5-(piperazin-1-yl)pyrazin-2-amine] as the compound, how does the Ki read?
A: 1000 to 10000 nM

Q: For `CCNC(=O)[C@@H]1CCCN1c1cnc(N)c(-c2nnc(-c3ccc(CNC)cc3)o2)n1` [Compound I-348, (25)-1-[5-Amino-6-[5-[4-(methylaminomethyl)phenyl]-1,3,4-oxadiazol-2-yl]pyrazin-2-yl]-N-ethyl-pyrrolidine-2-carboxamide], which Ki is on record?
A: 1000 to 10000 nM

Q: With `Nc1ncc(N2CCN(C(=O)C3CCC3)CC2)nc1C(=O)Nc1ccccn1` [Compound I-145, 3-amino-6-(4-(cyclobutanecarbonyl)piperazin-1-yl)-N-(pyridin-2-yl)pyrazine-2-carboxamide] as the compound, how does the Ki read?
A: 100 to 1000 nM

Q: With `Nc1ncc(N2CC[C@H](NC(=O)COc3ccccc3)C2)nc1-c1nc2ccccc2[nH]1` [Compound I-205, (S)-N-(1-(5-amino-6-(1H-benzo[d]imidazol-2-yl)pyrazin-2-yl)pyrrolidin-3-yl)-2-phenoxyethanamide] as the compound, how does the Ki read?
A: 100 to 1000 nM

Q: `CCS(=O)(=O)N1CCN(c2cnc(N)c(-c3cc4ccccc4s3)n2)CC1` [Compound I-59, 3-(benzo[b]thiophen-2-yl)-5-(4-(ethylsulfonyl)piperazin-1-yl)pyrazin-2-amine] was tested. Which Ki did it give?
A: 100 to 1000 nM

Q: For `Nc1ncc(N2CCN(C(=O)N3CCCCC3)CC2)nc1C(=O)Nc1ccccn1` [Compound I-247, 3-amino-6-(4-(piperidine-1-carbonyl)piperazin-1-yl)-N-(pyridin-2-yl)pyrazine-2-carboxamide], which Ki is on record?
A: 1000 to 10000 nM

Q: Which Ki does the source give for `Nc1ncc(C2=CCN(S(=O)(=O)C3CC3)CC2)nc1-c1nc2ccccc2[nH]1` [Compound I-93, 3-(1H-benzo[d]imidazol-2-yl)-5-(1-(cyclopropylsulfonyl)-1,2,3,6-tetrahydropyridin-4-yl)pyrazin-2-amine] here?
A: < 100 nM

Q: For `CCS(=O)(=O)N1CCN(c2cnc(N)c(-c3nnc(C4CCCCC4)o3)n2)CC1` [Compound I-72, 3-(5-cyclohexyl-1,3,4-oxadiazol-2-yl)-5-(4-(ethylsulfonyl)piperazin-1-yl)pyrazin-2-amine], which Ki is on record?
A: 1000 to 10000 nM

Q: `Cc1ccc2nc(-c3nc(N4CCS(=O)(=O)CC4)cnc3N)[nH]c2c1` [Compound I-21, 5-(1,1-dioxo-1,4-thiazinan-4-yl)-3-(6-methyl-1H-benzimidazol-2-yl)pyrazin-2-amine] was tested. Which Ki did it give?
A: 1000 to 10000 nM

Q: How did the Ki turn out when `COCCOCC(=O)N1CCN(c2cnc(N)c(C(=O)Nc3ccccn3)n2)CC1` [Compound I-151, 3-amino-6-(4-(2-(2-methoxyethoxy)ethanoyl)piperazin-1-yl)-N-(pyridin-2-yl)pyrazine-2-carboxamide] was run?
A: 1000 to 10000 nM

Q: `Nc1ncc(N2CC=C(C(=O)O)CC2)nc1-c1nnc(-c2ccccc2)o1` [Compound I-288, 1-[5-amino-6-(5-phenyl-1,3,4-oxadiazol-2-yl)pyrazin-2-yl]-3,6-dihydro-2H-pyridine-4-carboxylic acid] was tested. Which Ki did it give?
A: 100 to 1000 nM

Q: How did the Ki turn out when `Nc1ncc(C2=CCN(C(=O)C3CCC3)CC2)nc1-c1nnc(-c2ccccc2)o1` [Compound I-128, (4-(5-amino-6-(5-phenyl-1,3,4-oxadiazol-2-yl)pyrazin-2-yl)-5,6-dihydropyridin-1(2H)-yl)(cyclobutyl)methanone] was run?
A: < 100 nM

Q: For `CCS(=O)(=O)N1CC=C(c2cnc(N)c(-c3noc(-c4ccccc4)n3)n2)CC1` [Compound I-307, 5-(1-ethylsulfonyl-3,6-dihydro-2H-pyridin-4-yl)-3-(5-phenyl-1,2,4-oxadiazol-3-yl)pyrazin-2-amine], which Ki is on record?
A: 100 to 1000 nM

Q: Which Ki does the source give for `CCS(=O)(=O)N1CCN(c2cnc(N)c(-c3nc4ccccc4n3C)n2)CC1` [Compound I-15, 5-(4-(ethylsulfonyl)piperazin-1-yl)-3-(1-methyl-1H-benzo[d]imidazol-2-yl)pyrazin-2-amine] here?
A: 100 to 1000 nM

Q: Which Ki does the source give for `CCS(=O)(=O)N1CCN(c2cnc(N)c(-c3nnc(-c4c(F)cccc4F)o3)n2)CC1` [Compound I-289, 3-[5-(2,6-difluorophenyl)-1,3,4-oxadiazol-2-yl]-5-(4-ethylsulfonylpiperazin-1-yl)pyrazin-2-amine] here?
A: 100 to 1000 nM

Q: `CCS(=O)(=O)N1CCN(c2cnc(N)c(-c3nc(-c4ccccc4)no3)n2)CC1` [Compound I-19, 5-(4-(ethylsulfonyl)piperazin-1-yl)-3-(3-phenyl-1,2,4-oxadiazol-5-yl)pyrazin-2-amine] was tested. Which Ki did it give?
A: 100 to 1000 nM

Q: `Nc1ncc(N2CCN(C(=O)c3cccnc3)CC2)nc1C(=O)Nc1ccccn1` [Compound I-146, 3-amino-N-(pyridin-2-yl)-6-(4-(pyridine-3-carbonyl)piperazin-1-yl)pyrazine-2-carboxamide] was tested. Which Ki did it give?
A: 1000 to 10000 nM

Q: `CC(=O)N1CC=C(c2cnc(N)c(-c3nc4ccccc4[nH]3)n2)CC1` [Compound I-136, 1-(4-(5-amino-6-(1H-benzo[d]imidazol-2-yl)pyrazin-2-yl)-5,6-dihydropyridin-1(2H)-yl)ethanone] was tested. Which Ki did it give?
A: < 100 nM

Q: How did the Ki turn out when `Cc1ccc2nc(-c3nc(N4CCC(C#N)CC4)cnc3N)[nH]c2c1` [Compound I-34, 1-(5-amino-6-(6-methyl-1H-benzo[d]imidazol-2-yl)pyrazin-2-yl)piperidine-4-carbonitrile] was run?
A: 1000 to 10000 nM

Q: `Nc1ncc(C2=CCN(S(=O)(=O)Cc3ccccc3)CC2)nc1-c1nnc(-c2ccccc2)o1` [Compound I-100, 5-(1-(benzylsulfonyl)-1,2,3,6-tetrahydropyridin-4-yl)-3-(5-phenyl-1,3,4-oxadiazol-2-yl)pyrazin-2-amine] was tested. Which Ki did it give?
A: < 100 nM

Q: `Nc1ncc(C2=CCN(C(=O)COc3ccccc3)CC2)nc1-c1nnc(-c2ccccc2)o1` [Compound I-126, 1-(4-(5-amino-6-(5-phenyl-1,3,4-oxadiazol-2-yl)pyrazin-2-yl)-5,6-dihydropyridin-1(2H)-yl)-2-phenoxyethanone] was tested. Which Ki did it give?
A: < 100 nM

Q: `COCC(=O)N1CCN(c2cnc(N)c(-c3nc4ccccc4[nH]3)n2)CC1` [Compound I-265, 1-(4-(5-amino-6-(1H-benzo[d]imidazol-2-yl)pyrazin-2-yl)piperazin-1-yl)-2-methoxyethanone] was tested. Which Ki did it give?
A: 1000 to 10000 nM

Q: With `CCS(=O)(=O)N1CC=C(c2cnc(N)c(C(=O)Nc3cccnc3OC)n2)CC1` [Compound I-165, 3-amino-6-(1-(ethylsulfonyl)-1,2,3,6-tetrahydropyridin-4-yl)-N-(2-methoxypyridin-3-yl)pyrazine-2-carboxamide] as the compound, how does the Ki read?
A: < 100 nM

Q: How did the Ki turn out when `Cc1ccc2nc(-c3nc(N4CCN(c5ccccc5)CC4)cnc3N)[nH]c2c1` [Compound I-30, 3-(6-methyl-1H-benzo[d]imidazol-2-yl)-5-(4-phenylpiperazin-1-yl)pyrazin-2-amine] was run?
A: 100 to 1000 nM

Q: For `Nc1ncc(C2=CCN(c3nccs3)CC2)nc1-c1nc2ccccc2[nH]1` [Compound I-164, 3-(1H-benzo[d]imidazol-2-yl)-5-(1-(thiazol-2-yl)-1,2,3,6-tetrahydropyridin-4-yl)pyrazin-2-amine], which Ki is on record?
A: < 100 nM

Q: With `Nc1ncc(N2CCCC2=O)nc1-c1nc2ccccc2[nH]1` [Compound I-75, 1-(5-amino-6-(1H-benzo[d]imidazol-2-yl)pyrazin-2-yl)pyrrolidin-2-one] as the compound, how does the Ki read?
A: 1000 to 10000 nM

Q: For `CCS(=O)(=O)N1CCN(c2cnc(N)c(-c3nc4ccc(C)cc4[nH]3)n2)CC1` [Compound I-6, 5-(4-(ethylsulfonyl)piperazin-1-yl)-3-(6-methyl-1H-benzo[d]imidazol-2-yl)pyrazin-2-amine], which Ki is on record?
A: 100 to 1000 nM

Q: With `CC(=O)N1CCCN(c2cnc(N)c(-c3nc4ccc(C)cc4[nH]3)n2)CC1` [Compound I-1, 1-(4-(5-amino-6-(6-methyl-1H-benzo[d]imidazol-2-yl)pyrazin-2-yl)-1,4-diazepan-1-yl)ethanone] as the compound, how does the Ki read?
A: 1000 to 10000 nM

Q: `CN(C)S(=O)(=O)N1CC=C(c2cnc(N)c(-c3nc4ccccc4[nH]3)n2)CC1` [Compound I-89, 4-(5-amino-6-(1H-benzo[d]imidazol-2-yl)pyrazin-2-yl)-N,N-dimethyl-5,6-dihydropyridine-1(2H)-sulfonamide] was tested. Which Ki did it give?
A: < 100 nM

Q: `Nc1ncc(C2=CCN(C(=O)C3CC3)CC2)nc1-c1nc2ccccc2[nH]1` [Compound I-284, [4-[5-amino-6-(1H-benzimidazol-2-yl)pyrazin-2-yl]-3,6-dihydro-2H-pyridin-1-yl]-cyclopropyl-methanone] was tested. Which Ki did it give?
A: < 100 nM

Q: Which Ki does the source give for `CCS(=O)(=O)N1CCN(c2cnc(N)c(-c3cn4ccsc4n3)n2)CC1` [Compound I-62, 5-(4-(ethylsulfonyl)piperazin-1-yl)-3-(imidazo[2,1-b]thiazol-6-yl)pyrazin-2-amine] here?
A: 1000 to 10000 nM

Q: How did the Ki turn out when `Cc1ccc2nc(-c3nc(N4CCN(c5nccs5)CC4)cnc3N)[nH]c2c1` [Compound I-46, 3-(6-methyl-1H-benzo[d]imidazol-2-yl)-5-(4-(thiazol-2-yl)piperazin-1-yl)pyrazin-2-amine] was run?
A: 100 to 1000 nM

Q: How did the Ki turn out when `Nc1ncc(C2=CCN(C(=O)N3CCOCC3)CC2)nc1-c1nc2ccccc2[nH]1` [Compound I-227, (4-(5-amino-6-(1H-benzo[d]imidazol-2-yl)pyrazin-2-yl)-5,6-dihydropyridin-1(2H)-yl)(morpholino)methanone] was run?
A: 100 to 1000 nM

Q: For `Nc1ncc(N2CCN(S(=O)(=O)Cc3ccccc3)CC2)nc1C(=O)Nc1ccccn1` [Compound I-253, 3-amino-6-(4-(benzylsulfonyl)piperazin-1-yl)-N-(pyridin-2-yl)pyrazine-2-carboxamide], which Ki is on record?
A: 100 to 1000 nM

Q: Which Ki does the source give for `CCS(=O)(=O)N1CCN(c2cnc(N)c(-c3nnc(-c4cccs4)o3)n2)CC1` [Compound I-312, 5-(4-ethylsulfonylpiperazin-1-yl)-3-[5-(2-thienyl)-1,3,4-oxadiazol-2-yl]pyrazin-2-amine] here?
A: 100 to 1000 nM

Q: `CNCc1ccc(-c2nnc(-c3nc(C4CC4C(=O)NCC(O)CO)cnc3N)o2)cc1` (stereo not shown) [Compound I-376, 2-[5-Amino-6-[5-[4-(methylaminomethyl)phenyl]-1,3,4-oxadiazol-2-yl]pyrazin-2-yl]-N-(2,3-dihydroxypropyl)cyclopropanecarboxamide] was tested. Which Ki did it give?
A: 100 to 1000 nM

Q: For `Cc1ccc2nc(-c3nc(N4CCC(CO)CC4)cnc3N)[nH]c2c1` [Compound I-2, (1-(5-amino-6-(6-methyl-1H-benzo[d]imidazol-2-yl)pyrazin-2-yl)piperidin-4-yl)methanol], which Ki is on record?
A: 1000 to 10000 nM
